Laboratory results published in PubChem BioAssay (NCI).
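Growth conditions: 96-well plates. Treatment: test compound, 48 hours, 5 concentrations. Analysis: linear interpolation between bracketing concentrations; unreached endpoints set to highest concentration. TGI marks complete inhibition of growth.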

Tests used:
Assay in all cases: growth of human tumour cells (NCI), 48 h
[1] = test system: NCI-H226 lung
[2] = test system: U251 CNS
[3] = test system: HT29 colon
[4] = test system: SNB-75 CNS
[5] = test system: A498 renal
[6] = test system: NCI-H23 lung
[7] = test system: RXF 393 renal
[8] = test system: A549 NSCLC
[9] = test system: IGROV1 ovarian
[10] = test system: CAKI-1 renal
[11] = test system: HL-60(TB) leukemia
[12] = test system: OVCAR-4 ovarian
[13] = test system: T-47D breast
[14] = test system: NCI/ADR-RES ovarian
[15] = test system: MALME-3M melanoma
[16] = test system: HCT-15 colon
[17] = test system: DU-145 prostate
[18] = test system: SK-OV-3 ovarian
[19] = test system: K-562 leukemia
[20] = test system: NCI-H460 lung
[21] = test system: HCT-116 colon
[22] = test system: UACC-257 melanoma
[23] = test system: HOP-62 NSCLC
[24] = test system: MDA-N
[25] = test system: EKVX NSCLC
[26] = test system: SF-268 CNS
[27] = test system: ACHN renal
[28] = test system: HS 578T breast
[29] = test system: SF-539 CNS
[30] = test system: SK-MEL-5 melanoma
[31] = test system: OVCAR-5 ovarian
[32] = test system: SK-MEL-28 melanoma
[33] = test system: MOLT-4 leukemia
[34] = test system: BT-549 breast
[35] = test system: M14 melanoma
[36] = test system: SN12C renal
[37] = test system: SNB-19 CNS
[38] = test system: NCI-H522 lung
[39] = test system: PC-3 prostate
[40] = test system: KM12 colon
[41] = test system: CCRF-CEM leukemia
[42] = test system: RPMI-8226 leukemia
[43] = test system: LOX IMVI melanoma
[44] = test system: OVCAR-3 ovarian
[45] = test system: SR leukemia
[46] = test system: TK-10 renal
[47] = test system: MDA-MB-231 breast
[48] = test system: OVCAR-8 ovarian
[49] = test system: HOP-92 NSCLC
[50] = test system: COLO 205 colon
[51] = test system: SK-MEL-2 melanoma
[52] = test system: UO-31 renal
[53] = test system: SF-295 CNS
[54] = test system: MDA-MB-435
[55] = test system: SW-620 colon
[56] = test system: 786-0 renal

Question: For `Clc1ccc(-c2ccc(-c3nn4c(CNc5ccccc5)nnc4s3)o2)c(Cl)c1`, which TGI [1] is on record?
Answer: The TGI was greater than 100 µM.

Question: What about the TGI [2] of the same molecule?
Answer: Its TGI is greater than 100 µM.

Question: What about the TGI [3] of the same molecule?
Answer: Its TGI is greater than 100 µM.

Question: What about the TGI [4] of the same molecule?
Answer: The TGI was greater than 100 µM.

Question: What about the TGI [5] of the same molecule?
Answer: Its TGI is greater than 100 µM.

Question: And the TGI [6]?
Answer: The TGI was greater than 100 µM.

Question: And the TGI [7]?
Answer: Its TGI is 86.2 µM.

Question: What about the TGI [8] of the same molecule?
Answer: The TGI was greater than 100 µM.

Question: And the TGI [9]?
Answer: Its TGI is greater than 100 µM.

Question: What about the TGI [10] of the same molecule?
Answer: Its TGI is greater than 100 µM.

Question: What about the TGI [11] of the same molecule?
Answer: Its TGI is greater than 100 µM.

Question: And the TGI [12]?
Answer: The TGI was greater than 100 µM.

Question: What about the TGI [13] of the same molecule?
Answer: The TGI was greater than 100 µM.

Question: What about the TGI [14] of the same molecule?
Answer: The TGI was greater than 100 µM.

Question: And the TGI [15]?
Answer: Its TGI is greater than 100 µM.

Question: What about the TGI [16] of the same molecule?
Answer: The TGI was greater than 100 µM.

Question: What about the TGI [17] of the same molecule?
Answer: The TGI was greater than 100 µM.

Question: What about the TGI [18] of the same molecule?
Answer: Its TGI is greater than 100 µM.

Question: What about the TGI [19] of the same molecule?
Answer: The TGI was greater than 100 µM.

Question: What about the TGI [20] of the same molecule?
Answer: Its TGI is greater than 100 µM.

Question: And the TGI [21]?
Answer: The TGI was greater than 100 µM.

Question: What about the TGI [22] of the same molecule?
Answer: Its TGI is greater than 100 µM.

Question: What about the TGI [23] of the same molecule?
Answer: The TGI was greater than 100 µM.

Question: What about the TGI [24] of the same molecule?
Answer: The TGI was greater than 100 µM.

Question: What about the TGI [25] of the same molecule?
Answer: Its TGI is greater than 100 µM.

Question: And the TGI [26]?
Answer: The TGI was greater than 100 µM.

Question: And the TGI [27]?
Answer: Its TGI is greater than 100 µM.

Question: What about the TGI [28] of the same molecule?
Answer: Its TGI is greater than 100 µM.

Question: What about the TGI [29] of the same molecule?
Answer: The TGI was 76.4 µM.

Question: And the TGI [30]?
Answer: Its TGI is greater than 100 µM.

Question: What about the TGI [31] of the same molecule?
Answer: The TGI was greater than 100 µM.

Question: And the TGI [32]?
Answer: Its TGI is greater than 100 µM.

Question: And the TGI [33]?
Answer: The TGI was greater than 100 µM.

Question: What about the TGI [34] of the same molecule?
Answer: Its TGI is greater than 100 µM.

Question: What about the TGI [35] of the same molecule?
Answer: The TGI was greater than 100 µM.

Question: And the TGI [36]?
Answer: Its TGI is greater than 100 µM.

Question: What about the TGI [37] of the same molecule?
Answer: The TGI was greater than 100 µM.

Question: And the TGI [38]?
Answer: Its TGI is greater than 100 µM.

Question: And the TGI [39]?
Answer: Its TGI is greater than 100 µM.

Question: What about the TGI [40] of the same molecule?
Answer: Its TGI is greater than 100 µM.

Question: And the TGI [41]?
Answer: The TGI was greater than 100 µM.

Question: And the TGI [42]?
Answer: The TGI was greater than 100 µM.

Question: What about the TGI [43] of the same molecule?
Answer: Its TGI is greater than 100 µM.

Question: What about the TGI [44] of the same molecule?
Answer: The TGI was greater than 100 µM.

Question: And the TGI [45]?
Answer: Its TGI is greater than 100 µM.

Question: And the TGI [46]?
Answer: Its TGI is greater than 100 µM.

Question: And the TGI [47]?
Answer: Its TGI is greater than 100 µM.

Question: What about the TGI [48] of the same molecule?
Answer: The TGI was greater than 100 µM.

Question: And the TGI [49]?
Answer: Its TGI is greater than 100 µM.

Question: What about the TGI [50] of the same molecule?
Answer: The TGI was greater than 100 µM.

Question: What about the TGI [51] of the same molecule?
Answer: The TGI was greater than 100 µM.

Question: And the TGI [52]?
Answer: The TGI was greater than 100 µM.

Question: And the TGI [53]?
Answer: Its TGI is greater than 100 µM.

Question: What about the TGI [54] of the same molecule?
Answer: Its TGI is greater than 100 µM.

Question: And the TGI [55]?
Answer: Its TGI is greater than 100 µM.

Question: And the TGI [56]?
Answer: The TGI was greater than 100 µM.
